“Also recorded” adds a separate entry of the source.
What was measured:
[1] = system: endogenous IKBKAP gene with the IVS20+6T→C mutation in cells of FD patients; experiment: RT-PCR of spliced products of the endogenous IKBKAP gene in cells of FD patients; format: cell-based, human; details: cultured 60 hours
Procedure: The cells of FD patients were obtained from Coriell Institute. The endogenous IKBKAP gene in the cells of FD patients had the IVS20^+6T→C mutation. Compound 1 and the kinetin were added at a concentration of 2 μM or 50 μM to a culture medium of the cells of FD patients. The cells were cultured for 60 hours, collected, and then subjected to RT-PCR. As the control, untreated cells and DMSO (solvent) treated cells were used. FIG. 4 illustrates the results.

[2] = system: pre-mRNA of the mutant human IKBKAP gene having the IVS20+6T→C mutation; experiment: two-color fluorescent FD-type splicing reporter construct in HeLa cells (GFP/RFP); format: cell-based; details: HeLa cells transfected with FD-type reporter construct
Excerpt: A reporter construct (FD type) as illustrated in FIG. 1B was produced by utilizing exons 19 to 21 of a mutant human IKBKAP gene having the IVS20^+6T→C mutation as illustrated in FIG. 1A. In the reporter construct, a gene for a GST protein, exons 19 to 21 of a mutant human IKBKAP gene, a red fluorescent protein (RFP), and a green fluorescent protein (GFP) were connected in this order downstream of a CAG promoter. When this reporter construct underwent wild-type splicing, the gene for a GST protein and exons 19 to 21 of the mutant human IKBKAP gene were joined to form an mRNA of 3n+1 bases in length, and a stop codon (UAA) of the RFP gene was out-of-frame, so that the GFP gene was translated in the frame to express a green fluorescent protein. On the other hand, when this reporter construct underwent abnormal splicing, the gene for a GST protein and exons 19 to 21 of the mutant human IKBKAP gene were joined to form an mRNA of 3n bases in length, so that the RFP gene and the stop codon (UAA) of the RFP gene were translated in the frame to express a red fluorescent protein. The FD-type reporter construct was used to screen a compound capable of inhibiting abnormal splicing of a pre-mRNA that was transcribed from the construct. Specifically, the FD-type reporter construct was transfected into HeLa cells, and then a test compound was brought into contact with the HeLa cells and cultured. Next, fluorescence observation was performed after a predetermined time, and the fluorescence intensity ratio (GFP/RFP) of GFP (normal splicing products) to RFP (abnormal splicing products) was compared to the control (e.g., a solvent alone or kinetin (reference compound 1)), so that the compound with higher fluorescence intensity was determined. […] The FD-type reporter construct was transfected into HeLa cells, and then the compound 1 was brought into contact with the HeLa cells and cultured (compound concentration: […], and 50.0 μM). Next, fluorescence observation was performed each after 24 hours and 48 hours, and the fluorescence intensity ratio (GFP/RFP) was determined. […]

[3] = system: IKBKAP gene with the IVS20+6T→C mutation; details: disclosed in U.S. Pat. No. 7,737,110; cited from earlier work

Compound | spliced products (mRNAs) of the endogenous IKBKAP gene by RT-PCR ([1]; 2 μM or 50 μM) | abnormal splicing inhibition activity compared with kinetin ([1]; RT-PCR) | concentration capable of inhibiting abnormal splicing ([1]; RT-PCR) [µM] | fluorescence intensity ratio (GFP/RFP) of GFP (normal splicing) to RFP (abnormal splicing) ([2]; 0.4, 2.0, 0.10, and 50.0 μM, after 24 hours and 48 hours) | degree of increase of GFP/RFP ratio compared with kinetin ([2]; after 24 hours and 48 hours) | screening outcome: GFP/RFP fluorescence intensity ratio compared to the control (solvent alone or kinetin) ([2]; after a predetermined time) | inhibition of abnormal splicing of the IKBKAP gene with the IVS20+6T→C mutation [3]
Clc1nc(NCc2ccco2)c2nc[nH]c2n1 [compound 1, 2-chloro-N-(2-furanylmethyl)-7H-purin-6-amine] | reduces the abnormal splicing products and increases the normal splicing products | about the same as that of the kinetin at a concentration of 50 μM; also recorded: superior to that of kinetin | ≤ 2 | increased in a concentration-dependent manner; also recorded: increases the GFP/RFP ratio in a concentration-dependent manner | significantly higher than that of the kinetin; also recorded: superior to that of kinetin | selected as a candidate compound for inhibiting abnormal splicing | 
c1coc(CNc2ncnc3nc[nH]c23)c1 [kinetin] |  |  |  |  |  |  | can inhibit abnormal splicing
